# Experimental data reported in patent US20070232575A1, “Treatment of Pulmonary Artery Hypertension with Dhea, Dheas, Dhea Analogs, or Dhea Derivatives” (priority 2004, published 2007).
# Entries after “also recorded” stand apart in the source; their conditions may differ.
# Key:
# BKCa = assay: Immunoblot of BKCa in arterial pulmonary extracts; type: in vivo, rat; conditions: oral DHEA 3 weeks
# Method: The level of expression of BKCa was examined using an immunoblot. Arterial pulmonary extracts were prepared from a pool of eight rats per sample and condition. Three separate samples were taken for each condition. The samples were ground in liquid N2, homogenized in RIPA buffer (1% Nonidet P-40/0.5% deoxycholate sodium/0.1% SDS/10 μg/ml aprotinin/100 μg/ml leupeptin/1 mM 4-(2-aminoethyl)benzenesulfonylfluoride in PBS) with a polytron (Bioblock Scientific), and then centrifuged. The extract was verified by Coomassie blue staining. Each sample was loaded at 10 μg in 7.5% resolving acrylamide gel and electrotransferred on to a nylon membrane. Immunoblot analyses used rabbit mAb against rat BKCa (Alomone Labs, Jerusalem, no. APC-021 at 1/500) and mouse monoclonal anti-actin (Santa Cruz Biotechnology, clone C-2 at 1/500). […] All experiments were repeated two or three times. Quantification of the data was performed using the SCION IMAGE program from the National Institutes of Health.
# systemic circulation = assay: Systemic circulation and cardiac function (systemic blood pressure, heart rate, cardiac output)
# Method: To determine the effect of the chronic hypoxia treatment-induced CH-PAH and to determine the effect of DHEA administration on PAP, the following PAP measurement method was used. Rats were anaesthetized with ketamine 50 mg/kg and xylazine 10 mg/kg by i.p. injection. Mean PAP was measured with 2.5-F catheters inserted into the right jugular vein in closed-chest rats (Bonnet, S., et al. (2002) Cardiovasc. Res. 53, 1019-1028, which is incorporated by reference herein in its entirety). The effect of DHEA on the systemic blood pressure was controlled by another catheter placed into the left carotid artery. Throughout all the experiments, heart rate and oxygen saturation were monitored. Acute hypoxic stress with fraction of inspired O2 of 10% were applied by administration of an air plus nitrogen gas mixture. The fraction of inspired O2 was monitored with an oxygen analyzer (Servomex, Crowborough, Great Britain), and the effects on the PAP were measured over a 10-15 minute period.
# Echocardiography measurements were also performed to determine differences between the treated and control rats. To perform this procedure, the rats were first anaesthetized. After thorax epilation, the animals were placed in the left lateral decubitus position. Resting echocardiography measurements were performed at ambient conditions by using a SONOS 5500 (Philips) echocardiograph and a 12-MHz sector scare transducer. Right and left ventricle wall thickness was measured on M-mode tracings following the recommendations of the American Society of Echocardiology as described by Jones et al. ((2002) Am. J. Physiol. 283, H364-H371). Right cardiac output was evaluated by measuring the electrical R-R delay, the PA diameter, and the velocity time integral (VTI) of PA flux.
# PASMCs = assay: Resting [Ca2+]i of PASMCs from orally DHEA-treated CH rats (indo-1); type: in vivo, rat; conditions: for effect on [Ca2+]i of PASMCs: CH rats
# Method: The heart and lungs were removed and intrapulmonary arteries (IPAs) (150-300 μm of internal diameter) were then dissected. The adventitial and intimal layers were removed. For contraction experiments, rings (3 mm in length) were prepared.
# As mentioned earlier, Ca^2+ is thought to play an important role in the response to chronic hypoxia. To measure the effects of DHEA on [Ca^2+]i of individual PASMCs, a [Ca^2+]i-sensitive fluorophore, indo-1 (Calbiochem, San Diego, Calif.), was employed. PASMCs were loaded with indo-1 by incubation in physiological salt solution (139.6 mM NaCl/6.2 mM KCl/1 mM MgCl2/12.1 mM glucose/10 mM Hepes) containing 1 μM indo-1 penta-acetoxymethyl ester (Indo-1 a.m.) for 25 minutes at room temperature. The recording system included a Nikon Diaphot inverted microscope fitted with epifluorescence. The studied cell was illuminated at 360 nm and counted simultaneously at 405 nm and 480 nm by two photomultipliers (P100, Nikon). […] [Ca^2+]i was estimated from the 405:480 ratio (Bonnet, S., et al. (2001) Am. J. Physiol. 281, L193-L201).
# acute hypoxic challenge = assay: Pressure response of the PA to acute hypoxic challenge; type: in vivo, rat; conditions: 3 weeks of hypoxia under DHEA treatment; response disappeared without DHEA
# Method: To determine the effect of the chronic hypoxia treatment-induced CH-PAH and to determine the effect of DHEA administration on PAP, the following PAP measurement method was used. Rats were anaesthetized with ketamine 50 mg/kg and xylazine 10 mg/kg by i.p. injection. […] The effect of DHEA on the systemic blood pressure was controlled by another catheter placed into the left carotid artery. Throughout all the experiments, heart rate and oxygen saturation were monitored. Acute hypoxic stress with fraction of inspired O2 of 10% were applied by administration of an air plus nitrogen gas mixture. The fraction of inspired O2 was monitored with an oxygen analyzer (Servomex, Crowborough, Great Britain), and the effects on the PAP were measured over a 10-15 minute period.
# [1] = one week oral DHEA treatment in CH rats
smiles,measurement,setting,value
"C[C@]12CC[C@H](O)CC1=CC[C@@H]1[C@@H]2CC[C@]2(C)C(=O)CC[C@@H]12 [DHEA, dehydroepiandrosterone]",effect on CH-induced decrease of BKCa protein,BKCa,This decrease was prevented; also recorded: up-regulation
same,"immunoreactive signal of BKCa-subunit, CH-DHEA higher than CH",BKCa; three separate comparisons,48.6±5.6%
same,cardiac output,systemic circulation; [1],did not affect
same,heart rate,systemic circulation; [1],did not affect
same,systemic pressure,systemic circulation; [1],did not affect
same,cardiac output,systemic circulation; oral DHEA 3 weeks,No significant changes
same,heart rate,systemic circulation; oral DHEA 3 weeks,No significant changes
same,cardiac function,"systemic circulation; oral DHEA 3 weeks, CH-DHEA rats (FIG. 1 D and E)",did not affect
same,systemic blood pressure / systemic circulation,"systemic circulation; oral DHEA 3 weeks, control, DHEA treated and untreated groups",No significant changes; also recorded: did not affect
same,resting [Ca2+]i value of PASMCs,"PASMCs; CH-DHEA rats (3 wk oral DHEA), CH 143±7, control 69.2±2.2",90.1 ± 3.2 nM
same,resting [Ca2+]i value of PASMCs,"PASMCs; DHEA from day 15 to day 21 of chronic hypoxia, untreated 143±7",105 ± 3 nM
same,effect on [Ca2+]i of PASMCs,PASMCs; oral DHEA for 1 week,significant decrease; also recorded: decrease in [Ca^2+]i
same,effect on [Ca2+]i of PASMCs,PASMCs; oral DHEA for 3 weeks,significant decrease; also recorded: decrease in [Ca^2+]i
same,pressure response to an acute hypoxic challenge,acute hypoxic challenge,restored
